In US20140018384A1, “QUINOLINONE DERIVATIVES FOR USE IN THE TREATMENT OF AN AUTOIMMUNE DISEASE AND/OR AN INFLAMMATORY DISEASE” (PRONOXIS AB, priority 2011, published 2014):
Where two headings read alike, the source gives them in different places.

Tested on: PLB-985 cells
Assay: ROS production (isoluminol/HRP luminescence) in PLB-985 cells, Biological Example 1
Type: cell-based
Protocol: To cells (HL-60 or PLB-985) in HBSS medium was added compound (25 or 50 μM), isoluminol and Horse Radish Peroxidase, fraction II. Luminescence was measured for 10-30 minutes and the area under the […] curve was divided by that from a control experiment to give the activity expressed as fold change.
Each assay indicated below was performed at a different site, at a different time, by different personnel and/or using different cell lines, concentrations and controls. The cell line, concentration of example compound and control used in respect of each assay were as indicated below. The values obtained from these different setups (each using an otherwise identical assay) are given as Activity A, B, C, D or E in Table 5 below. The values are expressed as fold increase of NADPH activity in the presence of the relevant of compound (as indicated below) compared to the relevant control (as indicated below).
Activity A: HL-60 cells; 50 μM compound vs. blank Activity B: PLB-985 cells; 25 μM compound vs. blank Activity C, D and E: PLB-985 cells; 25 μM compound vs. DMSO

[1] = 25 μM compound vs. DMSO, setup C, read-out: Activity C (fold increase of NADPH activity compared to control)
[2] = 25 μM compound vs. blank, read-out: Activity B (fold increase of NADPH activity compared to control)
[3] = 25 μM compound vs. DMSO, setup E, read-out: Activity E (fold increase of NADPH activity compared to control)
[4] = 25 μM compound vs. DMSO, setup D, read-out: Activity D (fold increase of NADPH activity compared to control)

Compound | fold induction at 25 µM [1] | fold induction at 25 µM [2] | further results
O=C(Cn1cc(C(=O)c2ccc(Cl)cc2)c(=O)c2cc3c(cc21)OCO3)Nc1ccc(Cl)cc1 [Example 51, 2-[3-(4-Chlorobenzoyl)-6,7-methylenedioxy-4-oxo-1-quinolinyl]-N-(4-chlorophenyl)acetamide] | 66.7 | 174 | –
COc1ccc2c(n1)c(=O)c(C(=O)c1ccc(F)cc1)cn2CC(=O)Nc1ccc(C(F)(F)F)cc1 [Example 40, 2-[3-(4-Fluorobenzoyl)-6-methoxy-4-oxo-1,5-naphthyridin-1-yl]-N-(4-trifluoromethylphenyl)acetamide] | – | – | fold induction at 25 µM [3]: 73
CCOc1ccc(C(=O)c2cn(CC(=O)Nc3ccc4c(c3)OCCO4)c3cc4c(cc3c2=O)OCO4)cc1 [Example 66, 2-[3-(4-Ethoxybenzoyl)-6,7-methylenedioxy-4-oxo-1-quinolinyl]-N-(3,4-ethylenedioxyphenyl)acetamide] | 2.5 | 2.7 | –
COc1ccc(NC(=O)Cn2cc(C(=O)c3ccccc3)c(=O)c3cc(OC)c(OC)cc32)cc1 [Example 103, N-p-Anisyl-2-(3-benzoyl-6,7-dimethoxy-4-oxo-1-quinolinyl)acetamide] | – | – | fold induction at 25 µM [4]: 3.7
O=C(Cn1cc(S(=O)(=O)c2ccccc2)c(=O)c2cc3c(cc21)OCO3)Nc1ccccc1 [Example 79, 2-(3-Benzenesulfonyl-6,7-methylenedioxy-4-oxo-1-quinolinyl)-N-phenylacetamide] | 3.2 | – | –
Cc1ccc(C(=O)c2cn(CC(=O)Nc3ccc(F)cc3)c3cc4c(cc3c2=O)OCO4)cc1 [Example 62, N-(4-Fluorophenyl)-2-(6,7-methylenedioxy-4-oxo-3-p-toluoyl-1-quinolinyl)acetamide] | 26.1 | 51 | –
O=C(Cn1cc(C(=O)c2ccc3ccccc3c2)c(=O)c2cc3c(cc21)OCO3)Nc1cccnc1 [Example 12, 2-[6,7-Methylenedioxy-3-(2-naphthoyl)-4-oxo-1-quinolinyl]-N-(3-pyridyl)acetamide] | – | – | fold induction at 25 µM [3]: 3.2
CCOc1ccc(NC(=O)Cn2cc(C(=O)c3ccc(CC)cc3)c(=O)c3cc4c(cc32)OCO4)cc1 [Example 71, N-(4-Ethoxyphenyl)-2-[3-(4-ethylbenzoyl)-6,7-methylenedioxy-4-oxo-1-quinolinyl]acetamide] | 25.1 | 43.6 | –
COc1cc2c(cc1C)c(=O)c(C(=O)c1ccc3ccccc3c1)cn2CC(=O)Nc1ccc(Cl)cc1 [Example 20, N-(4-Chlorophenyl)-2-[7-methoxy-6-methyl-3-(2-naphthoyl)-4-oxo-1-quinolinyl]acetamide] | – | – | fold induction at 25 µM [4]: 6.3
COc1ccc(C(=O)c2cn(CC(=O)Nc3ccc4c(c3)OCCO4)c3cc4c(cc3c2=O)OCO4)cc1 [Example 58, 2-(3-p-Anisoyl-67-methylenedioxy-4-oxo-1-quinolinyl)-N-(3,4-ethylenedioxyphenyl)acetamide] | 3.6 | 2.5 | –
COc1ccc(NC(=O)Cn2cc(C(=O)c3ccc(F)cc3)c(=O)c3cc4c(cc32)OCCO4)cc1 [Example 108, N-p-Anisyl-2-[6,7-ethylenedioxy-3-(4-fluorobenzoyl)-4-oxo-1-quinolinyl]acetamide] | – | – | fold induction at 25 µM [4]: 1.3
COc1ccc(NC(=O)Cn2cc(C(=O)c3ccc(C)c(C)c3)c(=O)c3cc4c(cc32)OCO4)cc1 [Example 47, N-p-Anisyl-2-[3-(3,4-dimethylbenzoyl)-6,7-methylenedioxy-4-oxo-1-quinolinyl]acetamide] | 58.4 | 144 | –
COc1ccc(NC(=O)Cn2cc(C(=O)c3ccc(F)cc3)c(=O)c3cc(F)ccc32)cc1 [Example 106, N-p-Anisyl-2-[6-fluoro-3-(4-fluorobenzoyl)-4-oxo-1-quinolinyl]acetamide] | – | – | fold induction at 25 µM [4]: 5.6
COc1cccc(NC(=O)Cn2cc(C(=O)c3ccc(C)c(C)c3)c(=O)c3cc4c(cc32)OCO4)c1 [Example 75, N-m-Anisyl-2-[3-(3,4-dimethylbenzoyl)-6,7-methylenedioxy-4-oxo-1-quinolinyl]acetamide] | 5.3 | 7.7 | –
COc1cc2c(=O)c(C(=O)c3ccc4ccccc4c3)cn(CC(=O)Nc3ccc(Cl)cc3)c2cc1OC [Example 17, N-(4-Chlorophenyl)-2-[6,7-dimethoxy-3-(2-naphthoyl)-4-oxo-1-quinolinyl]acetamide] | – | – | fold induction at 25 µM [4]: 16.3
O=C(Cn1cc(C(=O)c2ccccc2)c(=O)c2cc3c(cc21)OCO3)Nc1ccc(Cl)cc1 [Example 48, 2-(3-Benzoyl-6,7-methylenedioxy-4-oxo-1-quinolinyl)-N-(4-chlorophenyl)acetamide] | 42.5 | 81.4 | –

Compound | fold induction at 25 µM [1] | fold induction at 25 µM [2] | further results
COc1ccc2c(n1)c(=O)c(C(=O)c1ccc(F)cc1)cn2CC(=O)Nc1ccc(C)cc1 [Example 39, 2-[3-(4-Fluorobenzoyl)-6-methoxy-4-oxo-1,5-naphthyridin-1-yl]-N-p-tolylacetamide] | – | – | fold induction at 25 µM [3]: 76.2
CCOc1ccc(C(=O)c2cn(CC(=O)Nc3ccc(F)c(F)c3)c3cc4c(cc3c2=O)OCO4)cc1 [Example 67, N-(3,4-Difluorophenyl)-2-[3-(4-ethoxybenzoyl)-6,7-methylenedioxy-4-oxo-1-quinolinyl]acetamide] | 1.8 | 2.3 | –
O=C(Cn1cc(C(=O)c2ccc3ccccc3c2)c(=O)c2cc3c(cc21)OCO3)Nc1ccc(C(F)(F)F)cc1 [Example 11, 2-[6,7-Methylenedioxy-3-(2-naphthoyl)-4-oxo-1-quinolinyl]-N-(4-trifluoromethylphenyl)acetamide] | – | – | fold induction at 25 µM [3]: 8.8
O=C(Cn1cc(C(=O)c2ccc3ccccc3c2)c(=O)c2cc3c(cc21)OCO3)Nc1ccc(Cl)cc1Cl [Example 6, N-(2,4-DichlorophenyI)-2-[6,7-methylenedioxy-3-(2-naphthoyl)-4-oxo-1-quinolinyl]acetamide] | – | – | fold induction at 25 µM [3]: 1.7
O=C(Cn1cc(C(=O)c2ccc3ccccc3c2)c(=O)c2cc3c(cc21)OCO3)Nc1ccc(OC(F)(F)F)cc1 [Example 5, 2-[6,7-Methylenedioxy-3-(2-naphthoyl)-4-oxo-1-quinolinyl]-N-(4-trifluoromethoxyphenyl)acetamide] | – | – | fold induction at 25 µM [3]: 4.3
COc1ccc(NC(=O)Cn2cc(C(=O)c3ccc(F)cc3)c(=O)c3cc(OC)ccc32)cc1 [Example 107, N-p-Anisyl-2-[3-(4-fluorobenzoyl)-6-methoxy-4-oxo-1-quinolinyl]acetamide] | – | – | fold induction at 25 µM [4]: 6.6
O=C(Cn1cc(C(=O)c2ccc(F)cc2)c(=O)c2cc3c(cc21)OCO3)Nc1ccc(F)cc1 [Example 55, 2-[3-(4-Fluorobenzoyl)-6,7-methylenedioxy-4-oxo-1-quinolinyl]-N-(4-fluorophenyl)acetamide] | 19.6 | 6.3 | –
COc1cc(NC(=O)Cn2cc(C(=O)c3ccc(C)c(C)c3)c(=O)c3cc4c(cc32)OCO4)cc(OC)c1 [Example 73, N-(3,5-Dimethoxyphenyl)-2-[3-(3,4-dimethylbenzoyl)-6,7-methylenedioxy-4-oxo-1-quinolinyl]acetamide] | 17.1 | 15.2 | –
O=C(Cn1cc(C(=O)c2ccc(Cl)cc2)c(=O)c2cc3c(cc21)OCO3)Nc1ccc2c(c1)OCO2 [Example 88, 2-[3-(4-Chlorobenzoyl)-6,7-methylenedioxy-4-oxo-1-quinolinyl]-N-(3,4-methylenedioxyphenyl)acetamide] | 31.4 | – | –
O=C(Cn1cc(C(=O)c2cccnc2)c(=O)c2cc3c(cc21)OCO3)Nc1ccc(Cl)cn1 [Example 34, N-(5-Chloro-2-pyridyl)-2-(6,7-methylenedioxy-3-nicotinoyl-4-oxo-1-quinolinyl)acetamide] | 27.5 | – | –
CCc1ccc(C(=O)c2cn(CC(=O)Nc3ccc(Cl)cc3)c3cc4c(cc3c2=O)OCO4)cc1 [Example 53, N-(4-Chlorophenyl)-2-[3-(4-ethylbenzoyl)-6,7-methylenedioxy-4-oxo-1-quinolinyl]acetamide] | – | 150 | –
COc1ccc(NC(=O)Cn2cc(C(=O)c3ccc(Cl)cc3)c(=O)c3cc(OC)c(OC)cc32)cc1 [Example 104, N-p-Anisyl-2-[3-(4-chlorobenzoyl)-6,7-dimethoxy-4-oxo-1-quinolinyl]acetamide] | – | – | fold induction at 25 µM [4]: 1.4
O=C(Cn1cc(C(=O)c2ccc3ccccc3c2)c(=O)c2cc3c(cc21)OCO3)Nc1ccccc1Cl [Example 10, N-(2-ChlorophenyI)-2-[6,7-methylenedioxy-3-(2-naphthoyl)-4-oxo-1-quinolinyl]acetamide] | – | – | fold induction at 25 µM [3]: 1.7
O=C(Cn1cc(C(=O)c2ccc3ccccc3c2)c(=O)c2cc3c(cc21)OCO3)Nc1ccc(Cl)cn1 [Example 28, N-(5-Chloro-2-pyridyl)-2-[6,7-methylenedioxy-3-(2-naphthoyl)-4-oxo-1-quinolinyl]-acetamide] | 16.1 | – | –
CN(C(=O)Cn1cc(C(=O)c2ccc3ccccc3c2)c(=O)c2cc3c(cc21)OCO3)c1ccc(Cl)cc1 [Example 15, N-(4-Chlorophenyl)-N-methyl-2-[6,7-methylenedioxy-3-(2-naphthoyl)-4-oxo-1-quinolinyl]acetamide] | – | – | fold induction at 25 µM [3]: 4.3
